This is an account of results in US20090317419A1, “Tetramers” (Duke University, priority 2008, published 2009).

Test [1] concerns mAb 13H11 and mAb 2F5 on beads. To be noted: flow cytometry, mAbs 13H11 and 2F5 on beads. The method, then: Antibody-coated beads. Carboxyl-polystyrene beads (3.0-3.4 μm) (Spherotech, Inc., Lake Forest, Ill.) were resuspended in 0.01 M sodium acetate buffer (pH 5.0) and reacted (20° C.×1 hr) with 1-ethyl-3-(3-dimethylaminopropyl) carbodiimide hydrochloride (EDC) (Sigma-Aldrich, Co., St. Louis, Mo.) at a ratio of 3.1 mg beads to 1 mg EDC. Beads were washed with sodium acetate buffer, resuspended in a minimal volume before adding purified mAb in the same buffer (ratio of 16 mg beads to 1 mg mAb), incubated (20° C.×2 hrs), then washed with sodium acetate buffer. Beads were resuspended at 5% in PBS containing 1% bovine serum albumin and 0.02% sodium azide.
(§1) Use of antibody-coated beads and cell lines for tetramer quality control. Tetramer stocks were diluted to twice the desired final concentration in PBS containing 1% BSA. An equal volume of beads or cells at 5×10^5 up to 2×10^6 per sample were mixed with tetramer and incubated (4° C.×30 min). Beads or cells were washed with PBS+1% BSA before being fixed in 2% methanol-free formaldehyde (Polysciences, Inc, Warrington, Pa.) in PBS. Samples were stored at 4° C. prior to being analyzed by flow cytometry (BD LSR II, Becton Dickinson, Mountain View, Calif.). Data were analyzed using FlowJo (Tree Star, Ashland, Oreg.). For tetramer titration 40-80 ng tetramer per 10^6 cells/beads was serially diluted over 8-12 points. Optimal concentrations determined by this method were used for subsequent experiments. For cold competition experiments the incubation step was performed by staining with 10-fold excess unlabeled tetramer (4° C.×30 min) prior to the addition of APC-labeled tetramer. For cell dilution experiments, a mixture of mAb cell lines was made and then 1:10 serial dilutions of cells prepared. For cross competition experiments, mixtures of cells were prepared and then stained singly with anti-IgG reagents or tetramer, or the cells were doubly stained with both reagents either sequentially or concurrently.
On the technique in general: A flow cytometer gives signals particle by particle.

The test system of test [2] is naïve splenic B cells, BALB/c congenic strain bearing the IgH^b allotype. The protocol: (§2) Mice. Female C57BL/6, BALB/c, B6Igh^a, and CB17 (BALBc Igh^b) inbred mouse strains (8-12 weeks of age) were purchased from Charles River Laboratories. All mice were housed in the Duke University Animal Facility in a pathogen-free environment with 12 hour light/dark cycles at 20-25° C. under AALAC guidelines and in accordance with all Institutional Animal Care and Use Committee and Duke University Institutional Biosafety Committee-approved animal protocols.
(§3) Antibodies and flow cytometry. Immunofluorescent staining of single cell suspensions (≧2×10^6) was conducted using pre-mixed combinations of fluorochrome-labeled antibodies and APC-conjugated B cell tetramers at empirically-determined optimal concentrations. All antibodies were from BD unless otherwise stated. […] Other reagents included biotinylated antibodies against dump channel markers: Thy1 (Ox7; Abcam), F4/80 (BM8; Abcam), CD11c (clone HL3), Gr-1 (clone RB6-8C5), TER-119, and NK-1.1 (clone PK136), secondary staining SA-Texas Red conjugate; v-amine live/dead violet dye (Molecular Probes), and Fc block (anti-CD16/32; clone 2.4G2).
(§4) Staining was conducted at 4° C. in several sequential steps in FACS staining buffer (1×PBS with 2% FCS, 0.1% NaN3), washing twice between steps. First, cells were incubated with v-amine live/dead dye for 15 min. Next, cells were stained with APC-labeled tetramers for 30 min. […]

For test [3], the system named is naïve splenic B cells, C57BL/6 congenic strain bearing the IgH^a allotype. The method, then: as §2, §3, §4
Test [4] deals with mixture of anti-gp41 MPER 13H11 cells and anti-gp120 V3 F39F cells. The method, then:
as §1

In the next test the test system is 13H11 cells. The note with it: flow cytometry. The protocol:
as §1

Test [5] has as its system total naïve splenic BALB/c B cells. The note with it: APC-labeled tetramer. The protocol: (§5) Cell isolation, serum collection, and PBMC isolations. Heparinized or non-heparanized blood was collected sub-mandibularly 10 days after immunizations. For preparation of peripheral blood lymphocytes for B cell tetramer analysis, PBMC were isolated from blood collected in heparinized tubes (0.2 ml) using Lympholyte M (Cederlane). For Luminex and ELISA assays, sera was isolated from non-heparanized blood and stored at −20° C. until use. Spleen, bone marrow (BM), and peritoneal cavity (PerC) cells were also collected. For most immunizations, tissues were harvested after the 4th boost, except for kinetic studies, in which tissues from mice were harvested after 1, 3 or 7 days after a single immunization. For BM preparations, femora and tibiae were removed, aspirated with tissue medium using 23 gauge needles, filtered with 70 μm cell strainers (BD labware), and RBC-depleted using Tris-buffered ammonium chloride lysis. For splenocyte preparation, spleens were harvested and dissociated into single-cell suspensions either by passage through 70 μm cell strainers in tissue medium or by using frosted glass slides, and blood erythrocytes were depleted with ammonium chloride lysis. For isolation of peritoneal cells, peritoneal cavities of sacrificed mice were lavaged by injection with 10 ml of PBS, followed by gentle massage of the abdomen, and withdrawal of the peritoneal exudates. BM, splenic, and peritoneal single cell suspensions were centrifuged at 1500 rpm for 5 min and resuspended in 5, 10, and 1 ml of tissue media, respectively, for cell counts and immunofluorescence staining. Cell counts were performed in duplicate on a Coulter ZI Dual Threshold Cell Counter (Coulter).
as §3
(§6) Staining was conducted at 4° C. in several sequential steps in FACS staining buffer (1×PBS with 2% FCS, 0.1% NaN3), washing twice between steps. First, cells were incubated with v-amine live/dead dye for 15 min. Next, cells were stained with APC-labeled tetramers for 30 min. Where applicable, this was preceded by addition of cold tetramer at 10 fold molar excess for 1 h. Finally, cells were stained with Fc block for 30 min, followed by incubation with combinations of primary antibody cocktails for 30 min, and secondary staining with SA-Texas Red for 30 min.
(§7) Data were acquired using an LSRII flow cytometer and Cell Quest software (BD Immunocytometry systems). A minimum of 250000 events were acquired per sample. FACS Analysis was performed using FlowJo software (Tree Star). For analysis, single cells were positively gated based on their forward scatter height vs. forward scatter area and side scatter height vs. side scatter area profiles, lymphocytes were then positively gated based on their forward and side scatter profile (live lymphocyte gate), residual dead cells were excluded with negative gating on v-amine live/dead dye, and all irrelevant non-B cells were excluded with negative gating on dump markers Thy1, F4/80, CD11c, Gr-1, TER-119, and NK-1.1.

In test [6] the test system is total naïve splenic C57BL/6 B cells. To be noted: C57BL/6, APC-labeled tetramer. The method, then:
as §5, §3, §6, §7

Read-outs that look alike come from different tables or passages of the source. Ends that are not written are not given here. * marks the point of attachment. Biotin = O=C1N[C@H]2[C@H](CS[C@H]2CCCCC(=O)*)N1

Turning to “Biotin-GGGQQEKNEQELLELDKWASLWN [gp41 MPER tetramer]”, the “binding to antibody-coated beads” value in test [1] is “bound to both the non-neutralizing mAb 13H11 and the neutralizing anti-gp41 mAb 2F5”. The entries for the “tetramer binding to splenic B cells” value in test [2] and in test [3] were “completely loses gp41 2F5 MPER binding” and “restores gp41 2F5 MPER binding”, respectively. Moreover, the “cells stained with tetramer” value in test [4] (mixture diluted tenfold with F39F cells) stood at 1.47%; in test [4] (mixture of 85% F39F cells and 15% 13H11 cells), 15.1%. The “cells staining over background” value in test [4] (mixture further diluted tenfold with F39F cells) came out at 0.12%. Moreover, in the test on 13H11 cells, the “binding to mAb cell line” value was “bound”. The “fraction of total naïve splenic B cell repertoire binding tetramer” value is over 5% in test [5] and under 0.3% in test [6].
